Seven molecules from article PMC6696413 (Molecules, 2019) can be followed below.

For orientation: IC50 means the midpoint of a concentration-inhibition curve.

Read-outs that look alike come from different tables or passages of the source.

What all share (format): biochemical
In one experiment the target is acetylcholinesterase (Homo sapiens, UniProt P22303). Kind of experiment: biochemical.
The next experiment has as its target tyrosinase. Kind of experiment: Tyrosinase inhibitory activity experiment (L-tyrosine, 405 nm). Particulars: 96-well plate, PBS, L-tyrosine substrate, 37 °C 30 min; kojic acid positive control. As to the method: In a 96-well plate, group A was added 80 μL of 0.1 mol/L PBS, 50 μL of solvent (solvent used to dissolve the sample: DMSO) and 50 μL of tyrosinase as a blank group (n = 2); group B was added 130 μL of 0.1 mol/L PBS and 50 μL of solvent as blank background group (n = 2); group C was added with 80 μL of 0.1 mol/L PBS, 50 μL of the sample (standard solution dissolved in DMSO to the concentration of 1.0 mg/mL) and 50 μL of tyrosinase as the experimental group (n = 2); group D were added 130 μL of 0.1 mol/L PBS and 50 μL of the sample as experimental background group (n = 2); finally, 20 μL of substrate (L-tyrosine) was added to each well to trigger the reaction, and the 96-well plate was further incubated at 37 °C.

For another experiment, the target named is α-glucosidase. Kind of experiment: α-Glucosidase inhibitory activity experiment (PNPG, 405 nm). Particulars: 96-well plate, PBS pH 7.4, 37 °C, PNPG substrate; acarbose positive control. As to the method: In a 96-well plate, group A was added 20 μL of 0.1 mol/L PBS (phosphate buffered saline (pH 7.4)), 20 μL of the sample (standard solution dissolved in DMSO to the concentration of 1.0 mg/mL) and 20 μL of α-glucosidase as a sample group (n = 3); Group B was added 40 μL of 0.1 mol/L PBS and 20 μL of the sample as the control group (n = 3); Group C was added 40 μL 0.1 mol/L PBS and 20 μL α-glucosidase as blank group (n = 3); after incubation for 15 min at 37 °C, then 2.5 mmol/L PNPG glycoside was added to each well and incubated at 37 °C. The reaction was stopped by adding 80 μL of a 0.2 mol/L Na2CO3 solution to each well after 15 min.

Where [1] appears, read: 96-well plate, PBS, ACTI and DTNB, 37 °C 20 min, huperzine A positive control, read-out: Acetylcholinesterase inhibitory activity IC50 (converted).

acetylcholinesterase, sequence (P22303 32-614, species assumed): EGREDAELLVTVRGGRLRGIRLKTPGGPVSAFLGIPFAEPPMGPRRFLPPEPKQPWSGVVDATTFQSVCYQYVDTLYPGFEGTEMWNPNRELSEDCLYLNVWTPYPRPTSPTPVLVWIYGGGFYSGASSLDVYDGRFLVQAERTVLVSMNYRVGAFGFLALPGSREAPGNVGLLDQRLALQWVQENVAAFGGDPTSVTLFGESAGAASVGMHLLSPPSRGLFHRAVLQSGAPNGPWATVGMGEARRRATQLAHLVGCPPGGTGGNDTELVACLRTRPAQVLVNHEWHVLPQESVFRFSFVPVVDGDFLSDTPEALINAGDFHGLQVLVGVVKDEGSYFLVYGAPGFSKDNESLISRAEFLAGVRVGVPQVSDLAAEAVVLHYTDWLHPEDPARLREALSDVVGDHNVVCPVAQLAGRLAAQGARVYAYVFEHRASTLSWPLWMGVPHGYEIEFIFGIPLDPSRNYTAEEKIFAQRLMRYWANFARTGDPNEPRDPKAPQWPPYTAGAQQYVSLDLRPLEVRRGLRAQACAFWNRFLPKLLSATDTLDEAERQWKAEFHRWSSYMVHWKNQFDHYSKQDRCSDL

As to `COC1OC(CNC2C(OC)OC(CO)C(O)C2O)C(O)C(O)C1O` [Compound 11, α-D-Alt-p-OMe (N2-6) α-D-Gle-p-OMe], the concentration for half-maximal inhibition (IC50) at acetylcholinesterase (setting [1]) is 1.4 mM. Moreover, the “Tyrosinase inhibitory activity IC50” value at tyrosinase was determined as 302.42 µg/mL. Also, at α-glucosidase, the “α-glucosidase activity inhibition IC50” value came out at 318.44 µg/mL.
As for `O=c1c(O)c(-c2ccc(O)cc2)oc2cc(O)cc(O)c12` [Compound 3, kaempferol], the IC50 against acetylcholinesterase is 1.76 mM.
`CC(C)[C@@H](C)/C=C/[C@@H](C)[C@H]1CC[C@@H]2[C@]1(C)CC[C@H]1[C@]23C=C[C@]2(C[C@@H](O)CC[C@]12C)OO3` [Compound 8, ergosterol peroxide]: the IC50 at acetylcholinesterase (setting [1]) was 1.17 mM. In addition, the “Tyrosinase inhibitory activity IC50” value at tyrosinase stood at 202.37 µg/mL. The “α-glucosidase activity inhibition IC50” value at α-glucosidase was 452.50 µg/mL.
In the case of `CC#CC#CC#CC#CC#CC(CO)O[C@@H]1O[C@H](CO)[C@@H](O)[C@H](O)[C@H]1O` (stereo partly drawn) [Compound 10, 2-β-D-glucopyranosyloxy-1-hydroxytrideca-3,5,7,9,11-pentayne], the half-maximal inhibitory concentration (IC50) at acetylcholinesterase (setting [1]) was 1.45 mM. Moreover, at α-glucosidase, the “α-glucosidase activity inhibition IC50” value amounted to 492.11 µg/mL.
`C[C@@H]1O[C@@H](OC[C@H]2O[C@@H](Oc3c(-c4ccc(O)c(O)c4)oc4cc(O)cc(O)c4c3=O)[C@H](O)[C@@H](O)[C@@H]2O)[C@H](O)[C@H](O)[C@H]1O` [Compound 7, rutin] showed an IC50 at acetylcholinesterase of 0.806 mM.
For `OCC1OC(OC2C(CO)OC(OC3C(CO)OC(OC4(CO)OC(CO)C(O)C4O)C(O)C3O)C(O)C2O)C(O)C(O)C1O` [Compound 12, O-α-D-glucopyranosyl-(1→4)-α-D-glucopyranosyl-(1→4)-α-D-glucopyranosyl-(1→2)-β-D-fructofuranoside], the half-maximal inhibitory concentration (IC50) at acetylcholinesterase (setting [1]) was 0.761 mM. Further, the “Tyrosinase inhibitory activity IC50” value on tyrosinase came to 1750.08 µg/mL. Besides, the “α-glucosidase activity inhibition IC50” value on α-glucosidase came out at 444.88 µg/mL.
`O=c1cc(-c2ccc(O)c(O)c2)oc2cc(O)cc(O)c12` [Compound 1, luteolin]: at acetylcholinesterase, half-maximal inhibition (IC50) was put at 1.66 mM. Also, the “Tyrosinase inhibitory activity IC50” value on tyrosinase worked out at 1643.11 µg/mL.
